Reference: EP1285919A1, “C10 Carbonate substituted taxanes as antitumor agents” (Florida State University Research Foundation, Inc., priority 2001, dated 2003)

Experiments:
HCT116 = test: In vitro cytotoxicity, cell colony formation assay; assay type: cell-based; details: HCT116; 72 h with drug, colonies counted after 7 days; concentration producing 50% inhibition of colony formation; read-out: IN VITRO ID 50
Description: In Vitro cytotoxicity measured by the cell colony formation assay
Four hundred cells (HCT116) were plated in 60 mm Petri dishes containing 2.7 mL of medium (modified McCoy's 5a medium containing 10% fetal bovine serum and 100 units/mL penicillin and […] streptomycin). The cells were incubated in a CO2 incubator at 37 °C for 5 h for attachment to the bottom of Petri dishes. The compounds identified in Example 2 were made up fresh in medium at ten times the final concentration, and then 0.3 mL of this stock solution was added to the 2.7 mL of medium in the dish. The cells were then incubated with drugs for 72 h at 37 ° C. At the end of incubation the drug-containing media were decanted, the dishes were rinsed with 4 mL of Hank's Balance Salt Solution (HBSS), 5 mL of fresh medium was added, and the dishes were returned to the incubator for colony formation. The cell colonies were counted using a colony counter after incubation for 7 days.

[1] = tested on: DU 145 Human Prostrate Carcinoma Xenografts; test: In vivo evaluation against DU145 prostate carcinoma xenografts
Description: In Vivo Evaluation of Antitumor Compounds Against DU 145 Human Prostrate Carcinoma Xenografts
(§1) Antitumor compounds were prepared in a vehicle of 5% ethanol, 5% Cremophor and 90% isotonic saline in the manner as described for Solution 1 of Example 10. Taxol (paclitaxel; Bristol Meyers Squibb) was obtained as the marketed pharmaceutical drug. The dosing volume was 0.3 ml per 20 g mouse.
Male NCr-nude mice were implanted subcutaneously with 1 mm^3 DU145 prostate carcinoma fragments in the flank and sorted into treatment groups of five mice each. […] Dosing was initiated on Day 1. The antitumor compounds were given i.v. at an estimated maximum tolerated dose (MTD) appropriate for each agent on a qd x 1 schedule (single administration of compound). The i.v. Taxol was given on the qd x 1 schedule as two split doses (one hour between) of 12 mg/kg per split dose (total dose = 24 mg/kg). Taxol was also administered intraperitoneally (i.p.) on a qd x 5 schedule at a daily dose of 18 mg/kg. The vehicle was administered i.v. to control mice in Group 1 on the qd x 1 schedule. The study was terminated on Day 91. Treatment groups are detailed in Table 3.
(§2) The mean days of survival is the number of days after which a neoplasm reached a size of 1.5 g and the animal was euthanized. A complete response is obtained […]. […]

[2] = tested on: A2780 Human Ovarian Carcinoma Xenografts; test: In vivo evaluation against A2780 ovarian carcinoma xenografts; set-up: species or system NCr-nude mice; Mean Score: scale not given here
Description: In Vivo Evaluation of Antitumor Compounds Against A2780 Human Ovarian Carcinoma Xenografts
The A2780 group mean size range was 237-243 mg. Dosing was initiated on Day 1. […] Treatment groups are detailed in Table 5.

[3] = tested on: Panc-1 Human Pancreatic Carcinoma; test: In vivo evaluation against Panc-1 pancreatic carcinoma xenografts
Description: In Vivo Evaluation of Antitumor Compounds Against Panc-1 Human Pancreatic Carcinoma
as §1
Female NCr-nude mice were implanted subcutaneously with 1 mm^3 Panc-1 pancreatic carcinoma fragments in the flank and sorted into treatment groups of six mice each. […] Dosing was initiated on Day 1. The antitumor compounds were given i.v. at an estimated maximum tolerated dose (MTD) appropriate for each agent on a qd x 1 schedule (single administration of compound). The i.v. taxol was given on the qd x 1 schedule as two split doses (one hour between) of 12 mg/kg per split dose (total dose = 24 mg/kg). Taxol was also administered at a dose of 15 mg/kg i.p. on a qd x 5 schedule. The vehicle was administered i.v. to control mice in Group 1 on the qd x 1 schedule. The study was terminated on Day 63. Treatment groups are detailed in Table 9.
as §2, with “The results are summarized in Table 10 and include mean days of survival (MDS), number of toxic deaths, number of survivors, number of complete or partial responses, and number with stable disease. The” for “The”

[4] = tested on: VM46 Human Colon Carcinoma; test: In vivo evaluation against VM46 colon carcinoma xenografts; set-up: species or system NCr-nude mice; Mean Score: scale not given here
Description: In Vivo Evaluation of Antitumor Compounds Against VM46 Human Colon Carcinoma
The VM46 tumor group mean size range was 181-188 mg. Dosing was initiated on Day 1. […] Taxotere was given i.v. at a dose of 70 mg/kg on a qd x 1 schedule. […] The study was terminated on Day 64. Treatment groups are detailed in Table 11.

[5] = Group 4: i.v. qd x 1 at estimated MTD, 5 mice, study to Day 91
[6] = 1781 i.v. qd x 1 at estimated MTD
[7] = Group 4: 60.6 mg/kg i.v. qd x 1, 5 mice, study to Day 60
[8] = Group 4: 60 mg/kg i.v. qd x 1, 6 mice, study to Day 63
[9] = Group 4: 60 mg/kg i.v. qd x 1, 6 mice, study to Day 64

## CCOC(=O)O[C@H]1C(=O)[C@@]2(C)[C@H]([C@H](OC(=O)c3ccccc3)[C@]3(O)C[C@H](OC(=O)[C@H](O)[C@H](C=C(C)C)NC(=O)OC(C)(C)C)C(C)=C1C3(C)C)[C@]1(OC(C)=O)CO[C@@H]1C[C@@H]2O [Compound 1781]
HCT116
  IC50: < 1 nM
[1]; 1781 72.6 mg/kg i.v. qd x 1, in a number of treated mice prior to death
  weight loss: over 20%
[1]; [5]
  Complete Response: 0
  Mean Score: 0 ± 0
  Partial Response: 0
  Stable Disease: 0
  Survivors: 0
  Toxic Deaths: 5
[2]; [6]
  total response rate: at least 20%
[2]; 1781 i.v. qd x 1 at estimated MTD, five mice treated
  partial responses: 2
[2]; Group 4: 60.6 mg/kg i.v. qd x 1, 5 mice, n=2, 2.0 g endpoint, study to Day 60
  MDS (n): 38.5 ± 8.3 (2) days
[2]; [7]
  Complete Response: 0
  Mean Score: 6 ± 1.3
  Partial Response: 2
  Stable Disease: 1
  Survivors: 3
  Toxic Deaths: 0
[3]; [6]
  overall response rate: 66.7%
[3]; Group 4: 60 mg/kg i.v. qd x 1, 6 mice, n=2, 1.5 g endpoint, study to Day 63
  MDS (n): 59.3 ± 2.9(2) days
[3]; [8]
  Complete Response: 0
  Mean Score: 6.7 ± 1.2
  Partial Response: 4
  Stable Disease: 0
  Survivors: 4
  Toxic Deaths: 0
[3]; i.v. qd x 1, Taxol 24 mg/kg, 1781 at estimated MTD, six mice per group
  Toxic Deaths: no toxic deaths
[3]; mouse, in vivo, iv
  mean group weight loss: minimal
  tolerability: well-tolerated
[4]; 1781 i.v. qd x 1, six mice
  Toxic Deaths: no toxic deaths
[4]; [6]
  response rate: 16.7%
[4]; Group 4: 60 mg/kg i.v. qd x 1, 6 mice, n=5, 1.5 g endpoint, study to Day 64
  MDS (n): 42.2 ± 7.1(5) days
[4]; [9]
  Complete Response: 0
  Mean Score: 3 ± 1.2
  Partial Response: 1
  Stable Disease: 0
  Toxic Deaths: 0
[4]; mouse, in vivo, iv
  tolerability: well-tolerated
